# Measured values as given in patent US20230023935A1, “USE OF MASITINIB FOR THE TREATMENT OF EOSINOPHILIC ASTHMA” (AB SCIENCE, priority 2019, published 2023).
# Test system: subjects with severe persistent asthma treated with oral corticosteroids
# Experiment: Phase 3 study AB07015: masitinib 6 mg/kg/day versus placebo, severe asthma exacerbations by baseline blood eosinophil cohort
# Assay type: in vivo, human
# Conditions: for Rate ratio (Estimate) for asthma exacerbations: Poisson regression
# Protocol: A prospective, multicenter, randomized, double-blind, placebo-controlled, 2-parallel groups, phase 3 study was carried out to compare the efficacy and the safety of masitinib at 6 mg/kg/day versus placebo in the treatment of subjects with severe persistent asthma treated with oral corticosteroids. Said clinical trial (reference AB07015) is registered under the EudraCT number: 2010-020803-63 and under the ClinicalTrials.gov identifier: NCT01449162. Patients were randomized in two groups with a masitinib to placebo randomization ratio of 2:1, respectively: • Group 1: patients receiving masitinib at 6 mg/kg/day; • Group 2: patients receiving placebo. […] According to the statistical analysis plan of study AB07015 (version 1.0 dated 18 Oct. 2019), the overall assessable population was defined as: ‘all patients in full analysis set (FAS) with severe asthma already treated with oral corticosteroids at a minimal daily dose of greater than 5 mg prednisone or equivalent for at least 3 months prior to screening.’ Subgroup analyses were performed with cohort categorization of severe asthma patients according to eosinophil blood count at baseline. The primary efficacy endpoint was defined as the severe asthma exacerbation rate adjusted on the available person-time (time to end of treatment) on full exposure (main period+extension/weaning period). The rate of severe asthma exacerbations was analyzed by applying a Poisson regression (log-link function and Poisson distribution) model. Because eosinophilic inflammation is correlated with asthma severity, it was of interest to perform subgroup analyses according to blood eosinophil levels. Table 2 below presents the results regarding masitinib treatment effect with respect to placebo (rate ratio for asthma exacerbations requiring steroid therapy) in various blood eosinophil level-defined cohorts, and their complement cohorts (according to the primary efficacy analysis population). The rate of asthma exacerbations is analyzed using Poisson regression with treatment group (masitinib, placebo) as the primary variable (covariate) of interest.
# [1] = masitinib 6 mg/kg/day oral, blood eosinophils equal to or higher than 150 cells/μL (M: 181)
# [2] = masitinib 6 mg/kg/day oral, blood eosinophils equal to or lower than 300 cells/μL (M: 145)
# [3] = masitinib 6 mg/kg/day oral, blood eosinophils higher than 300 cells/μL (M: 95)
# [4] = masitinib 6 mg/kg/day oral, blood eosinophils lower than 150 cells/μL (M: 59)
# [5] = masitinib 6 mg/kg/day oral, blood eosinophils ranging from 150 to 300 cells/μL (M: 86)
# [6] = masitinib vs placebo, blood eosinophils equal to or higher than 150 cells/μL
# [7] = masitinib vs placebo, blood eosinophils equal to or lower than 300 cells/μL
# [8] = masitinib vs placebo, blood eosinophils higher than 300 cells/μL
# [9] = masitinib vs placebo, blood eosinophils lower than 150 cells/μL
# [10] = masitinib vs placebo, blood eosinophils ranging from 150 to 300 cells/μL
# [11] = masitinib vs placebo, blood eosinophils equal to or higher than 300 cells/μL
structure (smiles),measurement,setting,value
"Cc1ccc(NC(=O)c2ccc(CN3CCN(C)CC3)cc2)cc1Nc1nc(-c2cccnc2)cs1 [Masitinib, 4-(4-methylpiperazin-1-ylmethyl)-N-[4-methyl-3-(4-pyridin-3ylthiazol-2-ylamino)phenyl]benzamide]",Yearly Exacerbation Rate,"masitinib 6 mg/kg/day oral, blood eosinophils equal to or higher than 150 cells/μL",0.34 severe exacerbations per year
same,Number of Severe Exacerbations,[1],67
same,n: number of subjects who experienced severe exacerbation,[1],(n = 39)
same,exacerbation rate,"masitinib 6 mg/kg/day oral, blood eosinophils equal to or higher than 300 cells/μL (95 patients)",0.29 severe exacerbations per year
same,Yearly Exacerbation Rate,"masitinib 6 mg/kg/day oral, blood eosinophils equal to or lower than 300 cells/μL",0.37
same,Number of Severe Exacerbations,[2],65
same,n: number of subjects who experienced severe exacerbation,[2],(n = 35)
same,Yearly Exacerbation Rate,"masitinib 6 mg/kg/day oral, blood eosinophils higher than 300 cells/μL",0.29
same,Number of Severe Exacerbations,[3],29
same,n: number of subjects who experienced severe exacerbation,[3],(n = 19)
same,Yearly Exacerbation Rate,"masitinib 6 mg/kg/day oral, blood eosinophils lower than 150 cells/μL",0.36 severe exacerbations per year
same,Number of Severe Exacerbations,[4],27
same,n: number of subjects who experienced severe exacerbation,[4],(n = 15)
same,Yearly Exacerbation Rate,"masitinib 6 mg/kg/day oral, blood eosinophils ranging from 150 to 300 cells/μL",0.38 severe exacerbations per year
same,Number of Severe Exacerbations,[5],38
same,n: number of subjects who experienced severe exacerbation,[5],(n = 20)
same,Rate ratio (Estimate) for asthma exacerbations,[6],0.66
same,Rate ratio (Estimate) for asthma exacerbations,[7],0.81
same,Rate ratio (Estimate) for asthma exacerbations,[8],0.59
same,Rate ratio (Estimate) for asthma exacerbations,[9],0.97
same,Rate ratio (Estimate) for asthma exacerbations,[10],0.72
same,Reduction in Severe Exacerbation,[6],34%
same,Reduction in Severe Exacerbation,"masitinib vs placebo, blood eosinophils equal to or higher than 150 cells/μL, listed as masitinib",33%
same,rate ratio for asthma exacerbations,[11],0.59
same,reduction (improvement) in severe exacerbation,[11],41%
same,Reduction in Severe Exacerbation,[7],19%
same,Reduction in Severe Exacerbation,[8],41%
same,Reduction in Severe Exacerbation,[9],3%
same,difference in exacerbation rate versus placebo,[9],no discernable difference
same,Reduction in Severe Exacerbation,"masitinib vs placebo, blood eosinophils lower than 150 cells/μL, listed as masitinib",3%
same,Reduction in Severe Exacerbation,[10],28%
same,Reduction in Severe Exacerbation,"masitinib vs placebo, blood eosinophils ranging from 150 to 300 cells/μL, listed as masitinib",28%
